Test results: PMC7672456 (Nucleic Acids Research, 2020)

How the values were obtained:
PfLysRS [1] = target: T1, PfLysRS (Plasmodium falciparum, UniProt Q8IDJ8); assay: Thermal shift assay; type: binding; conditions: for increase of Tm of PfLysRS: 200 μM compound
PfLysRS [2] = target: T1, PfLysRS; assay: Surface plasmon resonance; type: binding
HsLysRS [3] = target: T2, HsLysRS (Homo sapiens, UniProt Q15046); assay: ATP hydrolysis assay; type: biochemical
HsLysRS [4] = target: T2, HsLysRS; assay: Thermal shift assay; type: binding; conditions: in the presence or absence of L-lysine
P. falciparum strain 3D7 = assay: In vitro Plasmodium growth assay; type: cell-based, Plasmodium falciparum
[5] = tested on: mammalian protein translation system; assay: Mammalian protein translation assay in rabbit reticulocyte lysate; type: biochemical; conditions: firefly luciferase mRNA
[6] = phase I, patients, oral; cited from earlier work
PfLysRS [7] = target: T1, PfLysRS; conditions: cited from earlier work

T2 sequence (Q15046 70-581): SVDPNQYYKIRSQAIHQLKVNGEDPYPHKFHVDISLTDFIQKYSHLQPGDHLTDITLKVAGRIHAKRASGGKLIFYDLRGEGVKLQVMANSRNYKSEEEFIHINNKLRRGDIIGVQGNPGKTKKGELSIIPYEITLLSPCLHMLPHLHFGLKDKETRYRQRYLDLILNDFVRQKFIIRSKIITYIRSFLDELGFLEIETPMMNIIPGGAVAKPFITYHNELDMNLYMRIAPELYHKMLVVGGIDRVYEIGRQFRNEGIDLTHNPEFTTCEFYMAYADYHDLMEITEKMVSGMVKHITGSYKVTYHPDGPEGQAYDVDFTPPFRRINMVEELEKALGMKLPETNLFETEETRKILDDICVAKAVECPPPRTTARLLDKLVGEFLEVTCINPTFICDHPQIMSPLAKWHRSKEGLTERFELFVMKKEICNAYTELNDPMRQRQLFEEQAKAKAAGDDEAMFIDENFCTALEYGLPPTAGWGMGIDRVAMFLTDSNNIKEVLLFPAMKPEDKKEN
T1 sequence (Q8IDJ8 77-583 limits assumed): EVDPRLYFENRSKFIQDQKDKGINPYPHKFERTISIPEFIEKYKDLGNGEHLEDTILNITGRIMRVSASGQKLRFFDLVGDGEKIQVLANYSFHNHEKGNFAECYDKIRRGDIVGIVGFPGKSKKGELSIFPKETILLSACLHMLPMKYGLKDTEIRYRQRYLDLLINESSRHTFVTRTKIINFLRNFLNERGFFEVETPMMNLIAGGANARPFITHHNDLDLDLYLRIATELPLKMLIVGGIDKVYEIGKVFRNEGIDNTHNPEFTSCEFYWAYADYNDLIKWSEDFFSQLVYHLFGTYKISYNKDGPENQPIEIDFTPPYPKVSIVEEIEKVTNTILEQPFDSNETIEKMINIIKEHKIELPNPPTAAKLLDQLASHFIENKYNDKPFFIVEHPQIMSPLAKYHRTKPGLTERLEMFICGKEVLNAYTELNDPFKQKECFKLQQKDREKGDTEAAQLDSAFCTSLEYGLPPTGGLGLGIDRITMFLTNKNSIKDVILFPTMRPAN

Row | SMILES | Kd (PfLysRS [1]) | increase of Tm of PfLysRS (PfLysRS [1]; in the presence of L-lysine (500 μM)) | increase of Tm of PfLysRS (PfLysRS [1]; without L-lysine, 10 μM PfLysRS) | Kd (PfLysRS [2]) | koff (PfLysRS [2]) | kon (PfLysRS [2]) | IC50 (HsLysRS [3]) | fold less potent on HsLysRS than on PfLysRS (IC50 ratio) (HsLysRS [3]; ATP hydrolysis IC50 HsLysRS versus PfLysRS) | thermal stability of HsLysRS (HsLysRS [4]) | IC50 (P. falciparum strain 3D7; Plasmodium falciparum, 3D7, 72 h) | parasite growth and morphology (P. falciparum strain 3D7; synchronized ring stage, 25 μM, monitored over 72 h, Giemsa smears) | IC50 [5] | half-life range [6] | median half-life [6] | IC50 (PfLysRS [7]) | fold lower IC50 on PfLysRS compared to other eukaryotic LysRSs including human LysRS (PfLysRS [7])
1 | COc1cc(N2CCC(N3CCN(C)CC3)CC2)ccc1Nc1ncnc(Nc2ccccc2S(=O)(=O)C(C)C)n1 [ASP3026, N-{2-Methoxy-4-[4-(4-methylpiperazin-1-yl)piperidin-1-yl]phenyl}-N'-[2-(propane-2-sulfonyl)phenyl]-1,3,5-triazine-2,4-diamine] | ~0.238 µM | 8.0 °C | 10.0 °C | 0.239 µM | 0.0063 s⁻¹ | 26400 M⁻¹ s⁻¹ | > 250 µM | over 380 fold | could not increase the thermal stability | 5.61 ± 0.26 µM | stopped growing completely until they eventually died | > 1000 µM | 22 to 85 h | 35 h | – | –
2 | C[C@H]1CCC[C@H](C[C@H]2Cc3cc(O)cc(O)c3C(=O)O2)O1 [cladosporin] | – | – | – | – | – | – | – | – | – | – | – | – | – | – | ~0.004 µM | 1000 fold
